# Measurements from US8192962B2, “Processes for detecting toxic substances” (Daikin Industries, Ltd., priority 2001, dated 2012).
# System: Genes belonging to other category
# Assay: DNA chip mRNA expression in yeast, genes belonging to other category (Table 9)
# Format: cell-based, Saccharomyces cerevisiae S288C
# Description: Yeast (Saccharomyces cerevisiae S288C (α SUC2mal mel gap2 CUP1)) were incubated at 25° C. on YPD medium (yeast extract 1%, polypepton 2%, glucose 2%). One of toxic chemical substances was added to the cells at logarithmic growth phase, and the cells were further incubated for two hours. Cells were cultured without any chemical substance in the same condition, and were used as control. Concentrations of the chemical substances were defined to inhibit the growth of the yeast but not lead to death.
# After completion of the incubation, the culture was centrifuged to collect the cells. To the cells, sodium acetate buffer (50 mM sodium acetate, 10 mM EDTA, 1% SDS) was added, and the mixture was shaken at 65° C. for five minutes, followed by returning to room temperature, and obtaining the supernatant, of which the procedures were repeated two times. To the supernatant, ½ amount of a solution of phenol/chloroform was added, and the mixture was centrifuged to give a supernatant, which was added with an equal amount of chloroform, and the mixture was centrifuged to give a supernatant. To the supernatant, an equal amount of isopropanol containing 0.3 M sodium acetate was added, and the mixture was allowed to stand at room temperature for 30 minutes, after which the mixture was centrifuged to give a sediment of the whole RNAs. Seventy % ethanol was added to the sediment, and the mixture was again centrifuged to give a sediment, which was then dried and dissolved in water. mRNA was isolated from the whole RNAs as followings. In view of the fact that a poly A chain is attached to the 3′ terminus of mRNA, a polynucleotide having a poly T structure which was immobilized on the surface of latex beads was used to trap the mRNA, and then the mRNA was washed and eluted with spine column (Oligotex-dT30<Super>mRNA Purification Kit, Takara). Reverse transcription of the mRNA was conducted with a reverse transcriptase (Super Script II Reverse Transcriptase; catalogue No. 18064-014, GibcoBRL) using fluorescence-labeled nucleotides to give cDNAs that were introduced with Cy3-dUTP or Cy5-dUTP during the reverse transcription.
# The labeled cDNAs were dissolved in TE buffer (10mM Tris-HCl/1 mM EDTA, pH8.0), and the solution was dropped on the DNA chip containing the whole genes of yeast (DNA Chip Research Inc. Japan) so that the cDNAs were hybridized on the DNA chip at 65° C. for over 12 hours. The fluoresces intensity of the DNA chip was read with a scanner, and the ratio relative to the fluorescence intensity resulting from the absence of chemical substance was estimated as the following, which is shown in Tables 1 to 9: […]
compound,measurement,setting,value
"N#Cc1c(Cl)c(Cl)c(Cl)c(C#N)c1Cl [(9), 2,4,5,6-tetrachloro-1,3-benzenedicarbonitrile]",The level of expressed mRNA in the presence of chemical substance/The level of expressed mRNA in the absence of chemical substance,yeast gene YJR091C,2.4
same,The level of expressed mRNA in the presence of chemical substance/The level of expressed mRNA in the absence of chemical substance,yeast gene YJR099W,1.4
same,The level of expressed mRNA in the presence of chemical substance/The level of expressed mRNA in the absence of chemical substance,yeast gene YJR110W,4.9
same,The level of expressed mRNA in the presence of chemical substance/The level of expressed mRNA in the absence of chemical substance,yeast gene YJR122W,5.3
same,The level of expressed mRNA in the presence of chemical substance/The level of expressed mRNA in the absence of chemical substance,yeast gene YKL008C,0.3
same,The level of expressed mRNA in the presence of chemical substance/The level of expressed mRNA in the absence of chemical substance,yeast gene YKL013C,1.5
same,The level of expressed mRNA in the presence of chemical substance/The level of expressed mRNA in the absence of chemical substance,yeast gene YKL039W,1.3
same,The level of expressed mRNA in the presence of chemical substance/The level of expressed mRNA in the absence of chemical substance,yeast gene YKL041W,1.6
same,The level of expressed mRNA in the presence of chemical substance/The level of expressed mRNA in the absence of chemical substance,yeast gene YKL079W,2.3
same,The level of expressed mRNA in the presence of chemical substance/The level of expressed mRNA in the absence of chemical substance,yeast gene YKL096W,0.0
same,The level of expressed mRNA in the presence of chemical substance/The level of expressed mRNA in the absence of chemical substance,yeast gene YKL139W,1.6
same,The level of expressed mRNA in the presence of chemical substance/The level of expressed mRNA in the absence of chemical substance,yeast gene YKL165C,0.4
same,The level of expressed mRNA in the presence of chemical substance/The level of expressed mRNA in the absence of chemical substance,yeast gene YKL193C,1.0
same,The level of expressed mRNA in the presence of chemical substance/The level of expressed mRNA in the absence of chemical substance,yeast gene YKL196C,4.3
same,The level of expressed mRNA in the presence of chemical substance/The level of expressed mRNA in the absence of chemical substance,yeast gene YKR014C,2.4
same,The level of expressed mRNA in the presence of chemical substance/The level of expressed mRNA in the absence of chemical substance,yeast gene YKR068C,2.4
same,The level of expressed mRNA in the presence of chemical substance/The level of expressed mRNA in the absence of chemical substance,yeast gene YLL054C,2.4
same,The level of expressed mRNA in the presence of chemical substance/The level of expressed mRNA in the absence of chemical substance,yeast gene YLR080W,2.3
same,The level of expressed mRNA in the presence of chemical substance/The level of expressed mRNA in the absence of chemical substance,yeast gene YLR093C,1.5
same,The level of expressed mRNA in the presence of chemical substance/The level of expressed mRNA in the absence of chemical substance,yeast gene YLR118C,1.1
same,The level of expressed mRNA in the presence of chemical substance/The level of expressed mRNA in the absence of chemical substance,yeast gene YLR120C,1.8
same,The level of expressed mRNA in the presence of chemical substance/The level of expressed mRNA in the absence of chemical substance,yeast gene YLR136C,0.9
same,The level of expressed mRNA in the presence of chemical substance/The level of expressed mRNA in the absence of chemical substance,yeast gene YLR178C,4.3
same,The level of expressed mRNA in the presence of chemical substance/The level of expressed mRNA in the absence of chemical substance,yeast gene YLR206W,1.5
same,The level of expressed mRNA in the presence of chemical substance/The level of expressed mRNA in the absence of chemical substance,yeast gene YLR248W,2.3
same,The level of expressed mRNA in the presence of chemical substance/The level of expressed mRNA in the absence of chemical substance,yeast gene YLR250W,2.7
same,The level of expressed mRNA in the presence of chemical substance/The level of expressed mRNA in the absence of chemical substance,yeast gene YLR251W,2.1
same,The level of expressed mRNA in the presence of chemical substance/The level of expressed mRNA in the absence of chemical substance,yeast gene YLR327C,3.0
same,The level of expressed mRNA in the presence of chemical substance/The level of expressed mRNA in the absence of chemical substance,yeast gene YLR356W,2.3
same,The level of expressed mRNA in the presence of chemical substance/The level of expressed mRNA in the absence of chemical substance,yeast gene YLR362W,3.5
same,The level of expressed mRNA in the presence of chemical substance/The level of expressed mRNA in the absence of chemical substance,yeast gene YLR389C,2.4
same,The level of expressed mRNA in the presence of chemical substance/The level of expressed mRNA in the absence of chemical substance,yeast gene YLR391W,0.4
same,The level of expressed mRNA in the presence of chemical substance/The level of expressed mRNA in the absence of chemical substance,yeast gene YLR429W,0.9
same,The level of expressed mRNA in the presence of chemical substance/The level of expressed mRNA in the absence of chemical substance,yeast gene YMR004W,94.2
same,The level of expressed mRNA in the presence of chemical substance/The level of expressed mRNA in the absence of chemical substance,yeast gene YMR027W,1.1
same,The level of expressed mRNA in the presence of chemical substance/The level of expressed mRNA in the absence of chemical substance,yeast gene YMR053C,2.2
same,The level of expressed mRNA in the presence of chemical substance/The level of expressed mRNA in the absence of chemical substance,yeast gene YMR077C,1.9
same,The level of expressed mRNA in the presence of chemical substance/The level of expressed mRNA in the absence of chemical substance,yeast gene YMR091C,2.1
same,The level of expressed mRNA in the presence of chemical substance/The level of expressed mRNA in the absence of chemical substance,yeast gene YMR094W,−0.1
same,The level of expressed mRNA in the presence of chemical substance/The level of expressed mRNA in the absence of chemical substance,yeast gene YMR104C,0.6
same,The level of expressed mRNA in the presence of chemical substance/The level of expressed mRNA in the absence of chemical substance,yeast gene YMR110C,2.3
same,The level of expressed mRNA in the presence of chemical substance/The level of expressed mRNA in the absence of chemical substance,yeast gene YMR112C,1.4
same,The level of expressed mRNA in the presence of chemical substance/The level of expressed mRNA in the absence of chemical substance,yeast gene YMR139W,2.8
same,The level of expressed mRNA in the presence of chemical substance/The level of expressed mRNA in the absence of chemical substance,yeast gene YMR197C,1.9
same,The level of expressed mRNA in the presence of chemical substance/The level of expressed mRNA in the absence of chemical substance,yeast gene YMR219W,2.3
same,The level of expressed mRNA in the presence of chemical substance/The level of expressed mRNA in the absence of chemical substance,yeast gene YMR226C,2.6
same,The level of expressed mRNA in the presence of chemical substance/The level of expressed mRNA in the absence of chemical substance,yeast gene YMR238W,1.3
same,The level of expressed mRNA in the presence of chemical substance/The level of expressed mRNA in the absence of chemical substance,yeast gene YMR262W,3.0
same,The level of expressed mRNA in the presence of chemical substance/The level of expressed mRNA in the absence of chemical substance,yeast gene YMR275C,2.4
same,The level of expressed mRNA in the presence of chemical substance/The level of expressed mRNA in the absence of chemical substance,yeast gene YMR276W,1.8
